# Measured values from PMC6383986, “Fragment-Based Covalent Ligand Screening Enables Rapid Discovery of Inhibitors for the RBR E3 Ubiquitin Ligase HOIP” (Journal of the American Chemical Society, 2019).
# “Also recorded” adds a separate entry of the source.
# Tests used:
# IRAK4 = target: T1, IRAK4 (Homo sapiens, UniProt Q9NWZ3); experiment: IMAP-FP IRAK4 substrate phosphorylation assay; format: biochemical
# T1 construct: recombinant full length IRAK4-FLAG; His6 (with the rest of the FlagHisAvi vector tag) (C, cleaved yes); made in house; host or cells: Sf9 insect cells (baculovirus)
# HOIP RBR C885S = target: T2, HOIP RBR C885S (Homo sapiens, UniProt Q96EP0, C885S); experiment: Protein LC-MS labeling of active-site mutant; format: binding; conditions: 200 μM compound (100-fold excess), 2 μM protein, 4 h
# T2 construct: 697-1072; made in house; host or cells: E. coli BL21-GOLD(DE3)
# Method: negative control and compound solutions data points were acquired after 0.5, 4, and 24 h […]
# Protocol as described above, using the HOIP RBR C885S mutant (155 µM stock solution in 50 mM HEPES, 150 mM NaCl, 1 mM DTT, pH 7.5) and 50 mM HEPES, 150 mM NaCl, pH 7.5 buffer.
# The stock solution at 4 µM (25 µL per sample, final concentration 2 µM, 87 µg/mL), was mixed with buffer (24.5 µL) and compound (5) (0.5 µL of 2, and 20 mM stock solutions in DMSO, giving a final concentration of 20 and 200 µM respectively, and 1% DMSO). Data points were acquired after 0.5 and 4 h incubation.
# The HOIP RBR domain wild type was diluted with 50 mM HEPES, 150 mM NaCl, pH 7.5 buffer to afford a new stock solution at 2.02 µM, which was aliquoted into 10 × 297 µL. […]
# thawed individually and analyzed by protein mass spectrometry as described above. The total ion counts (TICs) detected for unlabelled HOIP and labelled HOIP-(5) conjugate within a peak elution range of 10 seconds were used to calculate the ratio of labelled HOIP RBR over total HOIP RBR content for each sample. The averaged data from 3 independent experiments were analyzed according to a two-step model of reversible ligand binding followed by irreversible covalent modification (Supplementary Figure S2A),11 fitted to a single exponential equation (equation 1, Supplementary Figure S2B) using GraFit (v.7). […]
# T1 sequence (Q9NWZ3 whole entry): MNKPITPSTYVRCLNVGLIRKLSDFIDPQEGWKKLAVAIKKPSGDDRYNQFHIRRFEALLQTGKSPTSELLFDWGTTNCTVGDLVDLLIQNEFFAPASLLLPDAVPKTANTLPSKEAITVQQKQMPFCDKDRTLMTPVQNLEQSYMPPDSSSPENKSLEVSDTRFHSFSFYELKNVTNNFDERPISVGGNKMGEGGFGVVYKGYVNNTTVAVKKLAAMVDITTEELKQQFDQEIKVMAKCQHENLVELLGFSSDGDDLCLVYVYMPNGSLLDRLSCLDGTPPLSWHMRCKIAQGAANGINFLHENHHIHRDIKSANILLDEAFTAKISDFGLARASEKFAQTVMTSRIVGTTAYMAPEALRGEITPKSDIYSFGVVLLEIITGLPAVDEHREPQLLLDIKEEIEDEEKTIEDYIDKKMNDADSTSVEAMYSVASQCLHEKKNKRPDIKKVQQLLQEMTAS
# T2 sequence (Q96EP0 697-1072 C885S): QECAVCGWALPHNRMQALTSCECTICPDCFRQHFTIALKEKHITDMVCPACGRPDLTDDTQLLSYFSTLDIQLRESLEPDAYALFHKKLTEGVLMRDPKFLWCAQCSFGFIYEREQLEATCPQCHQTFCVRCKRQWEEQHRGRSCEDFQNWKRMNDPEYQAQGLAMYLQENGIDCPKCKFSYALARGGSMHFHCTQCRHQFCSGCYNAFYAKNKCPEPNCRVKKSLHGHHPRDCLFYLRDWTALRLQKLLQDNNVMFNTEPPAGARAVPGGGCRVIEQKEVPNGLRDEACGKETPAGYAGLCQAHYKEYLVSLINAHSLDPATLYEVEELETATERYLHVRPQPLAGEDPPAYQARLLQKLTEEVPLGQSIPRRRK
"IC50 (IRAK4; 1 h preincubation, 6 nM IRAK4, 50 μM ATP)",inhibition of IRAK4 substrate phosphorylation (IRAK4; concentrations up to 200 μM),Compound,labeling of HOIP RBR C885S (HOIP RBR C885S)
> 200 µM,no inhibition,COC(=O)/C=C/CNC(=O)c1cc2c([nH]c1=O)CCCC2 [Compound 11a],–
–,–,COC(=O)/C=C/CNC(=O)c1cc2c([nH]c1=O)CCC2 [Compound 5],did not result in protein labeling; also recorded: not labeled
